Patent US12215133B2 (BrightGene Bio-Medical Technology Co., Ltd., priority 2021, dated 2025)

Experiments:
GLP-1 receptor = biological target: T1, GLP-1 receptor (Homo sapiens, UniProt P43220); assay: cAMP experiment, GLP-1 receptor (HEK293 host cell line); type: cell-based; conditions: HEK293 host cells
T1 construct: expressed in transfected cells; host or cells: HEK293 cell line

GIP receptor = biological target: T2, GIP receptor (Homo sapiens, UniProt P48546); assay: cAMP experiment, GIP receptor (CHO host cell line); type: cell-based; conditions: CHO host cells
T2 construct: expressed in transfected cells; host or cells: CHO cell line
T2 sequence (P48546 22-466): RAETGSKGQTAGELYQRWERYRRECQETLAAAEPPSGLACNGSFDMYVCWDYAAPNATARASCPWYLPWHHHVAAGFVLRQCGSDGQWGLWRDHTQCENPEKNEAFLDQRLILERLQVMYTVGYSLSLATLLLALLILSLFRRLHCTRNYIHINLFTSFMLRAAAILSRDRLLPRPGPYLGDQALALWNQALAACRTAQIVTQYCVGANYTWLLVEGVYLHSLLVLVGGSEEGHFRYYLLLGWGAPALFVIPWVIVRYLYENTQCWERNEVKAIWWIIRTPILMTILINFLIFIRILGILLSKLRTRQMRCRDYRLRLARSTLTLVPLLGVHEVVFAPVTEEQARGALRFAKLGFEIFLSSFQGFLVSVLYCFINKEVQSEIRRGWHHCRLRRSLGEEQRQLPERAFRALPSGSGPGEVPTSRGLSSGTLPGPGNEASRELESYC

T1 sequence (P43220 24-463, species assumed): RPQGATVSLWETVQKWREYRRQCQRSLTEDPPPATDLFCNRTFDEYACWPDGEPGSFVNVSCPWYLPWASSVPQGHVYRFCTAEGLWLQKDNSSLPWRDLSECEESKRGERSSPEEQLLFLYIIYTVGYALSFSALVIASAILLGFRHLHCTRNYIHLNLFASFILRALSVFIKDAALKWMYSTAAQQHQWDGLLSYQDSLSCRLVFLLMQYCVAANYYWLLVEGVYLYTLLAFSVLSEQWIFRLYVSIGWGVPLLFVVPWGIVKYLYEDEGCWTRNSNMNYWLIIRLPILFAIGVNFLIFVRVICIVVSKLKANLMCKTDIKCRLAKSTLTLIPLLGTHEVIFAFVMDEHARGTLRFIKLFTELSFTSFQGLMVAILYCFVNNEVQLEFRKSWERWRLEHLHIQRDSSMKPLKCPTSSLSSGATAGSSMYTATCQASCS

For `CC[C@H](C)[C@H](NC(=O)[C@H](CC(C)C)NC(=O)[C@H](Cc1c[nH]c2ccccc12)NC(=O)[C@H](CCC(N)=O)NC(=O)[C@@H](NC(=O)[C@H](Cc1ccccc1)NC(=O)[C@H](C)NC(=O)[C@H](CCCCN)NC(=O)[C@H](CCC(N)=O)NC(=O)[C@H](C)NC(=O)[C@@H](NC(=O)[C@H](CCCCNC(=O)COCCOCCOCCNC(=O)COCCOCCOCCNC(=O)CC[C@H](NC(=O)CCCCCCCCCCCCCCCCCCC(=O)O)C(=O)O)NC(=O)[C@H](CC(=O)O)NC(=O)[C@H](CC(C)C)NC(=O)C(C)(C)NC(=O)[C@@H](NC(=O)[C@H](CO)NC(=O)[C@H](Cc1ccc(O)cc1)NC(=O)[C@H](CC(=O)O)NC(=O)[C@H](CO)NC(=O)[C@@H](NC(=O)[C@H](Cc1ccccc1)NC(=O)[C@@H](NC(=O)CNC(=O)[C@H](CCC(=O)O)NC(=O)C(C)(C)NC(=O)[C@@H](N)Cc1ccc(O)cc1)[C@@H](C)O)[C@@H](C)O)[C@@H](C)CC)[C@@H](C)CC)C(C)C)C(=O)N[C@@H](C)C(=O)NCC(=O)NCC(=O)N1CCC[C@H]1C(=O)N[C@@H](CO)C(=O)N[C@@H](CO)C(=O)NCC(=O)N[C@@H](C)C(=O)N1CCC[C@H]1C(=O)N1CCC[C@H]1C(=O)N1CCC[C@H]1C(=O)N[C@@H](CO)C(N)=O` [BGM125, reference compound], the EC50 (GLP-1 receptor) was 0.0692 nM and the EC50 (GIP receptor) was 0.684 nM.
